{"source": "patent US20190211020A1", "about": "(Agency for Science, Technology and Research, priority 2012, published 2019)", "key": {"[1]": {"tested_on": "eIF4G levels in brain sections from Nlgn3 knock-out mice", "assay": "Immunoblot of eIF4G in brain slices of Nlgn3 knock-out mice", "design": "species or system mouse", "conditions": "40 μM CGP57380 or 50 nM ETC7168", "description": "(§1) For biochemical analyses mice were sacrificed by CO2 inhalation, the cerebellum dissected and rapidly placed in a vibratome chamber and sectioned at 300 μm in cold oxygenated aCSF (in mM: 125 NaCl, 2.5 KCl, 1 MgCl2, 2 CaCl2, 1.25 NaH2PO4, 20 Glucose, 26 NaHCO3, 95% O2/5% CO2). Slices obtained were maintained at 33° C. in oxygenated aCSF and treated with 40 μM CGP57380 or 50 nM ETC7168 for 45 mins and tissues were subsequently snap frozen in liquid nitrogen. Tissues were lysed in 25 mM Tris-HCl, 150 mM NaCl, 1% Triton, 0.2% SDS, 5 mM EDTA, 2 mM DTT, 1 mM NaF, 1 mM Na3VO4 containing protease inhibitor cocktail. The soluble fractions were analyzed by immunoblotting with primary antibodies for 24 hrs at 4° C. followed by detection with secondary antibodies for enhanced chemoluminescent detection. Impact of MNK inhibitors on autism-related behavior was tested in a knock-out mouse model for autism. Nlgn3 knock-out mouse model a human mutation identified in patients with autism^73-74. Compounds were applied in DMSO using intraperitoneal injection in adult male mice (2-4 months of age). Two injections were performed, the first 30 h and a second one 5 h before testing. Behavioral testing was performed using a well-accepted test for autism that consists of quantitative analysis of ultrasonic vocalizations emitted by male mice exposed to females in estrous^75. The apparatus consisted of an arena (40 cm×20 cm) surrounded by 30-cm-high walls made of grey plastic and equipped with a microphone and a video camera. Prior to testing, the estrous cycle of each female mouse was assessed and only females in estrous were kept for testing. Male mice were acclimatized for 3 min in the chamber. Subsequently a female in estrous was introduced in the arena, and ultrasonic vocalizations were recorded for 3 min using the Avisoft system (Avisoft Bioacoustics) with a frequency bandwidth of 30 kHz to 100 kHz. The number and length of ultrasonic vocalizations were quantified. All animal experiments were approved by the cantonal veterinary office Basel-Stadt, Switzerland."}, "[2]": {"tested_on": "eIF4E Ser209 phosphorylation in Hela cells", "assay": "MNK cell-based assay (AlphaScreen SureFire, eIF4E Ser209 phosphorylation)", "conditions": "Homo sapiens; eIF4E Ser209 phosphorylation, Hela cells, 2 hours; read-out: IC50 Hela", "method_in_brief": "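Hela cells (30,000/well) exposed to test compound in serum-free medium for 2 h at 37 °C, then lysed. Phospho-Ser209 eIF4E quantified by AlphaScreen SureFire; IC50 obtained by non-linear regression of signal versus log compound concentration.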"}, "[3]": {"tested_on": "eIF4E phosphorylation in K562 cells", "assay": "Western blot of eIF4E phosphorylation in K562 cells", "format": "cell-based", "conditions": "various concentrations, 24 h", "description": "(§2) K562 cell line was obtained from the ATCC, and grown in RPMI supplemented with 10% FCS, L-glutamine, and penicillin/streptomycin.\n(§3) Exponentially growing cells were plated at 2×10^5 cells/ml, and whole cell lysate processed for western blot analysis using antibodies recognizing eIF4E, phospho-eIF4E (Cell signaling Technology),"}, "BCR-ABL": {"target": "T1, BCR-ABL (Homo sapiens, UniProt P00519)", "T1 construct": "host or cells: K562; the other entry of the earlier key: BCR (P11274, Breakpoint cluster region protein)", "T1 sequence (P00519 with tags, fused parts or gaps)": "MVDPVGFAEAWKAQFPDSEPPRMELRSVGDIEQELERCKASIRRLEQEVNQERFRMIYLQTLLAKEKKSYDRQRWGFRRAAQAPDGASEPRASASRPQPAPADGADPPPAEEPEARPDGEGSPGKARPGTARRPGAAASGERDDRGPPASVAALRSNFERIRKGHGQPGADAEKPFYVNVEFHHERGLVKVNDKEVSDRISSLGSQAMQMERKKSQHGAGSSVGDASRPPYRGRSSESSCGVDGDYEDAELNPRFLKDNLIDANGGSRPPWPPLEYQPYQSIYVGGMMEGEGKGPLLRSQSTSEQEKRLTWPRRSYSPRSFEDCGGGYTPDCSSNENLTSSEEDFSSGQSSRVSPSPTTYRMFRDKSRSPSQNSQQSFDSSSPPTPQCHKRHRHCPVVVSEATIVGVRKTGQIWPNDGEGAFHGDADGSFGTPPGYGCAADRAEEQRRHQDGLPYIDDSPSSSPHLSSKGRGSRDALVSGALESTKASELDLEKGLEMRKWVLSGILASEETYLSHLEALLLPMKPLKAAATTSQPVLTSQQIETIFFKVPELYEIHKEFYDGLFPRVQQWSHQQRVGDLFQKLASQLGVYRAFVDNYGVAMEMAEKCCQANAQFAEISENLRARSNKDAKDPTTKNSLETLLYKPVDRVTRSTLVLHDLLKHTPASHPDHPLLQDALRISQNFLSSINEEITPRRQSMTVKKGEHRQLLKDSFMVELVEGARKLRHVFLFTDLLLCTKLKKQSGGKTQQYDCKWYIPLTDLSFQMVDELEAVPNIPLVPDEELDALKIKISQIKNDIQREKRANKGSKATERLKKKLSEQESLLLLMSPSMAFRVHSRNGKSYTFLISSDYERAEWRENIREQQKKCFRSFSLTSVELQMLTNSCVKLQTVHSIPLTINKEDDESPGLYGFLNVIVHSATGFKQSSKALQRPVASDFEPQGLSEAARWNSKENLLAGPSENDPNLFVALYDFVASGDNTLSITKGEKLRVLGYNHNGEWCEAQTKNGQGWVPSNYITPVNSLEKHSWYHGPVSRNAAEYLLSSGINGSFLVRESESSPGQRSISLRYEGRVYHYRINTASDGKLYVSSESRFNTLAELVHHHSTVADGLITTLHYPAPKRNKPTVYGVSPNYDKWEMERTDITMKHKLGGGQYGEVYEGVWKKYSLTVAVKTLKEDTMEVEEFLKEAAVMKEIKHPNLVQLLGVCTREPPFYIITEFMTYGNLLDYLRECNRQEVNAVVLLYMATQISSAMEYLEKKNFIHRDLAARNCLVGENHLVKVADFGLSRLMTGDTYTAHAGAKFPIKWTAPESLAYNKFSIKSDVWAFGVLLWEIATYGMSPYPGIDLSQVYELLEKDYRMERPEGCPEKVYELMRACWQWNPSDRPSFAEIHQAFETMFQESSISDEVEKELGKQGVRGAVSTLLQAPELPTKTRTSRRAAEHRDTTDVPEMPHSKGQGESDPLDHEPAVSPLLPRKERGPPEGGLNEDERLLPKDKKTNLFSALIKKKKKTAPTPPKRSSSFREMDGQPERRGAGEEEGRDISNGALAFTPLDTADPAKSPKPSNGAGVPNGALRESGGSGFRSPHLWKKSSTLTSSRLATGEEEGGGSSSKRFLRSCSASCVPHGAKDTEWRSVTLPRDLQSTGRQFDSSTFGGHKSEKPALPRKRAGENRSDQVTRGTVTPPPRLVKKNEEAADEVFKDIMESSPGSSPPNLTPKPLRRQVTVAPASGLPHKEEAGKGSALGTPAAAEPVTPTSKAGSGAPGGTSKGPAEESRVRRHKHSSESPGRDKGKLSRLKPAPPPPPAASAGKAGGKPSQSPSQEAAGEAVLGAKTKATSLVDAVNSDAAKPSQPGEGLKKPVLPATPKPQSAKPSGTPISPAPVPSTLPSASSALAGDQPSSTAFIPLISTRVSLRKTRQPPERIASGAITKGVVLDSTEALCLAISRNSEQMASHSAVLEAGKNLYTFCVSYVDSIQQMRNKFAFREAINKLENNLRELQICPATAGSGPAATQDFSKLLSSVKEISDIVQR", "assay": "Western blot of CrK1 phosphorylation (BCR-ABL activity) in K562 cells", "format": "cell-based", "description": "as §2, §3"}, "MV-4-11 (leukemia)": {"tested_on": "MV-4-11 (leukemia)", "assay": "Cell cytotoxicity assay (CellTiter-Glo), MV-4-11", "format": "cell-based", "conditions": "Homo sapiens, cell viability", "description": "(§4) Cancer cell lines, MV-4-11 (leukemia), P116.c139 (acute T cell leukemia) and D1.1 (acute T cell leukemia), were purchased from ATCC and cultured according to supplier's recommendations. K562 cells (myelogenous leukemia) over-expressing eIF4E, were also used for the cytotoxicity assay. For cells treated for 48 hours, 5000 cells were seeded in 70 μl of growth medium in black, flat-bottom 96-well plate. For cells treated for six days, 1000 cells were seeded in 70 μl of growth medium in black, flat-bottom 96-well plate. […] 50 μl of the diluted compounds was added to the cells and incubated at 37° C. in 5% CO2. After 48 hours or six days treatment, cell viability was determined by CellTiter-Glo Luminescent Cell Viability Assay (Promega, Madison, Wis.). 120 μl of the reagent was added to the cells and luminescence was measured using Tecan Safire Reader. Data was analysed with Graphpad Prism software and the figures represented indicate the half maximal inhibitory concentration (IC50). Error bars denote standard deviation (SD)."}, "[4]": {"tested_on": "MV-4-11, P116.c139 and D1.1 cell lines", "assay": "Cell cytotoxicity assay, the three test cell lines taken together", "format": "cell-based", "conditions": "Homo sapiens, MV4-11; regardless of the treatment duration (48 hours or 6 days)", "description": "as §4"}, "Nlgn3 knock-out mice": {"tested_on": "Nlgn3 knock-out mice", "assay": "Ultrasonic vocalization assay in Nlgn3 knock-out mice (autism model)", "format": "in vivo, mouse", "conditions": "50 microgram/kg intraperitoneal, 30 h and 5 h before testing", "description": "as §1, with “Impact of MNK inhibitors on autism-related behavior was tested in a knock-out mouse model for autism. Nlgn3 knock-out mouse model a human mutation identified in patients with autism^73-74. Compounds were applied in DMSO using intraperitoneal injection in adult male mice (2-4 months of age). Two injections were performed, the first 30 h and a second one 5 h before testing.” left out, “The apparatus consisted of an arena (40 cm×20 cm) surrounded by 30-cm-high walls made of grey plastic and equipped with a microphone and a video camera.” left out, “Male mice were acclimatized for 3 min in the chamber.” left out, “All animal experiments were approved by the cantonal veterinary office Basel-Stadt, Switzerland.” left out"}, "[5]": {"tested_on": "K562 cells (myelogenous leukemia) over-expressing eIF4E", "assay": "Cell cytotoxicity assay (CellTiter-Glo), K562", "format": "cell-based", "conditions": "for pIC50: Homo sapiens, cell viability", "description": "as §4"}}, "note": "pIC50: −log10 of the molar value. Entries after “also recorded” stand apart in the source; their conditions may differ. Read-outs that look alike come from different tables or passages of the source."}
{"smiles": "N#Cc1ccc(-c2cnc3ccc(-c4ccc(C(=O)N5CCOCC5)cc4)nn23)cc1", "note": "[Example 62, 4-(6-(4-(morpholine-4-carbonyl)phenyl)imidazo[1,2-b]pyridazin-3-yl)benzonitrile]", "values": [{"measurement": "eIF4G levels in brain sections from Nlgn3 knock-out mice", "setting": "[1]", "value": "elevated eIF4G levels"}, {"measurement": "eIF4G levels in brain sections from Nlgn3 knock-out mice", "setting": "[1]; listed as ECT7168", "value": "elevation in eIF4G levels"}, {"measurement": "pIC50", "setting": "[2]", "value": "> 6.00"}, {"measurement": "eIF4E phosphorylation in K562 (BC-CML cell line), Western blot", "setting": "[3]", "value": "prevent eIF4E phosphorylation; also recorded: decrease in eIF4E phosphorylation"}, {"measurement": "BCR-ABL activity (phosphorylation of CrK1) in K562 cells", "setting": "BCR-ABL", "value": "decrease in BCR-ABL activity"}, {"measurement": "pIC50", "setting": "MV-4-11 (leukemia); MV4-11, 144 h, 6 days, read-out: IC50 after 6 days of treatment, MV-4-11", "value": 6.70}, {"measurement": "pIC50", "setting": "MV-4-11 (leukemia); MV4-11, 48 hours, read-out: IC50 after 48 hours of treatment, MV-4-11", "value": 6.10}, {"measurement": "pIC50", "setting": "[4]", "value": "≥ 5.70"}, {"measurement": "ultrasonic vocalizations of Nlgn3 knock-out male mice (autism-related behavior)", "setting": "Nlgn3 knock-out mice", "value": "improves autism-relevant behavior"}, {"measurement": "ultrasonic vocalizations of Nlgn3 knock-out male mice (autism-related behavior)", "setting": "Nlgn3 knock-out mice; listed as ETC7168", "value": "robust elevation of ultrasonic vocalizations"}, {"measurement": "pIC50", "setting": "[5]; K562, 144 h, 6 days, read-out: IC50 after 6 days of treatment, K562", "value": 5.51}, {"measurement": "pIC50", "setting": "[5]; K562, 48 hours, read-out: IC50 after 48 hours of treatment, K562", "value": 5.12}, {"measurement": "change of IC50 when treatment duration was extended from 48 hours to 6 days, K562", "setting": "[5]; K562 cells over-expressing eIF4E", "value": "reduced by more than half"}]}
